Results reported in patent EP3046573B1, “AMYLIN ANALOGUES” (Zealand Pharma A/S, priority 2013, dated 2015).
Numbered stars: 1 amine (or outer) side, 2 acyl side, 3 side chain; on linkers, the order of the positions; unused ones are H or OH. Bridge positions count the residues as written; N and C are the ends. Square brackets hold non-standard residues; d marks the D form. Peptide text beside a SMILES is read from it. * marks the point of attachment. C20 diacid = O=C(O)CCCCCCCCCCCCCCCCCCC(=O)*; Pro(4R-NH2) = N[C@H]1CN[C@H](C(=O)O)C1; γGlu = O=C(O)[C@H](CCC(=O)[*:2])N[*:1]; Hyp = O=C(O)[C@@H]1C[C@@H](O)CN1; NMeI = CC[C@H](C)[C@H](NC)C(=O)O; Sar = CNCC(=O)O

Assay: Assessment of chemical stability: normalized purity by RP-HPLC after incubation at 40 °C
Assay type: physicochemical
Conditions: normalized purity (T=0 set to 100), 0.2 mg/ml; for Chem. stability; 7 days, 40°C pH 4: pH 4, 7 days; for Chem. stability; 7 days, 40°C pH 7.5: pH 7.5, 7 days; for Chem. stability; 7 days, 40°C pH 9: pH 9, 7 days
Description: Samples of each test peptide were dissolved in MilliQ™ water, and the pH of the solution was adjusted to pH 4, pH 7.5 or pH 9, respectively, using either HCI or NaOH. The final peptide concentration was 0.2 mg/ml. Samples were placed in glass vials and incubated at 40 °C. The samples were analyzed by RP-HPLC on a C8 column with gradient elution using an ammonium formate/water eluent system, or on a C18 column with gradient elution using a trifluoroacetic acid/water eluent system. The area-percentage (area-%) of the main peak after incubation time T = t (relative to time T = 0) was determined by UV spectroscopy at 220 nm.
The purity was first determined as follows: Purity(area−%) = (area of main peak/total area of all peaks) × 100. [formula]
The purity was then normalized between time points by setting purity at time 0 (T=0) to 100 for each pH value for a given peptide, as follows: Normalised area−%at time t(T = t) = [area−%(T = t)/area−%(T = 0)] × 100. [formula]
The normalized purity values in Table 2 were determined after 7 days of incubation. Table 2. EC50, chemical stability and fibrillation data for compounds of the invention

| SMILES | Chem. stability; 7 days, 40°C pH 4 [area-%] | Chem. stability; 7 days, 40°C pH 7.5 [area-%] | Chem. stability; 7 days, 40°C pH 9 [area-%] |
| --- | --- | --- | --- |
| CC[C@H](C)[C@@H](C(=O)N[C@@H](CC(C)C)C(=O)N[C@@H](CO)C(=O)N[C@@H](CO)C(=O)N[C@H](C(=O)N[C@@H](CC(N)=O)C(=O)N[C@H](C(=O)NCC(=O)N[C@@H](CO)C(=O)N[C@@H](CC(N)=O)C(=O)N[C@H](C(=O)N1C[C@H](O)C[C@H]1C(N)=O)[C@@H](C)O)C(C)C)[C@@H](C)O)N(C)C(=O)[C@H](C)NC(=O)CN(C)C(=O)[C@H](Cc1ccccc1)NC(=O)[C@H](CC(N)=O)NC(=O)[C@H](CC(N)=O)NC(=O)[C@H](CO)NC(=O)[C@H](CO)NC(=O)[C@H](CCCNC(=N)N)NC(=O)[C@H](Cc1c[nH]cn1)NC(=O)[C@H](CC(C)C)NC(=O)[C@H](Cc1ccccc1)NC(=O)[C@H](CCC(=O)O)NC(=O)[C@H](C)NC(=O)[C@H](CC(C)C)NC(=O)[C@H](CCCNC(=N)N)NC(=O)[C@H](CCC(N)=O)NC(=O)[C@@H](NC(=O)[C@H](C)NC(=O)[C@@H]1CSSC[C@H](NC(=O)[C@H](CCCNC(=N)N)NC(=O)CC[C@H](NC(=O)CCCCCCCCCCCCCCCCCCC(=O)O)C(=O)O)C(=O)N[C@@H](CC(N)=O)C(=O)N[C@@H]([C@@H](C)O)C(=O)N[C@@H](C)C(=O)N[C@@H]([C@@H](C)O)C(=O)N1)[C@@H](C)O [Compound 105, [19CD]-isoGlu-RC()NTATC()ATQRLAEFLHRSSNNF-Gly(Me)-A-Ile(Me)-LSSTNVGSNT-Hyp-NH2] ({C20 diacid-γGlu}-RCNTATCATQRLAEFLHRSSNNF[Sar]A[NMeI]LSSTNVGSNT[Hyp]-NH2; disulfide 2-7) | 57 | 57 | 42 |
| CC[C@H](C)[C@@H](C(=O)N[C@@H](CC(C)C)C(=O)N[C@@H](CO)C(=O)N[C@@H](CO)C(=O)N[C@H](C(=O)N[C@@H](CC(N)=O)C(=O)N[C@H](C(=O)NCC(=O)N[C@@H](CO)C(=O)N[C@@H](CC(N)=O)C(=O)N[C@H](C(=O)N1CCC[C@H]1C(N)=O)[C@@H](C)O)C(C)C)[C@@H](C)O)N(C)C(=O)[C@H](C)NC(=O)CN(C)C(=O)[C@H](Cc1ccccc1)NC(=O)[C@H](CC(N)=O)NC(=O)[C@H](CC(N)=O)NC(=O)[C@H](CO)NC(=O)[C@H](CO)NC(=O)[C@H](CCCNC(=N)N)NC(=O)[C@H](Cc1c[nH]cn1)NC(=O)[C@H](CC(C)C)NC(=O)[C@H](Cc1ccccc1)NC(=O)[C@H](CCC(=O)O)NC(=O)[C@H](C)NC(=O)[C@H](CC(C)C)NC(=O)[C@H](CCCNC(=N)N)NC(=O)[C@H](CCC(N)=O)NC(=O)[C@@H](NC(=O)[C@H](C)NC(=O)[C@@H]1CSSC[C@H](NC(=O)[C@H](CCCCN)NC(=O)[C@H](CCCCN)NC(=O)CC[C@H](NC(=O)CCCCCCCCCCCCCCCCCCC(=O)O)C(=O)O)C(=O)N[C@@H](CC(N)=O)C(=O)N[C@@H]([C@@H](C)O)C(=O)N[C@@H](C)C(=O)N[C@@H]([C@@H](C)O)C(=O)N1)[C@@H](C)O [Compound 87, [19CD]-isoGlu-KKC()NTATC()ATQRLAEFLHRSSNNF-Gly(Me)-A-Ile(Me)-LSSTNVGSNTP-NH2] ({C20 diacid-γGlu}-KKCNTATCATQRLAEFLHRSSNNF[Sar]A[NMeI]LSSTNVGSNTP-NH2; disulfide 3-8) | 63 | 39 | 40 |
| CC[C@H](C)[C@@H](C(=O)N[C@@H](CC(C)C)C(=O)N[C@@H](CO)C(=O)N[C@@H](CO)C(=O)N[C@H](C(=O)N[C@@H](CC(N)=O)C(=O)N[C@H](C(=O)NCC(=O)N[C@@H](CO)C(=O)N[C@@H](CC(N)=O)C(=O)N[C@H](C(=O)N1CCC[C@H]1C(N)=O)[C@@H](C)O)C(C)C)[C@@H](C)O)N(C)C(=O)[C@H](C)NC(=O)CN(C)C(=O)[C@H](Cc1ccccc1)NC(=O)[C@H](CC(N)=O)NC(=O)[C@H](CC(N)=O)NC(=O)[C@H](CO)NC(=O)[C@H](CO)NC(=O)[C@H](CCCNC(=N)N)NC(=O)[C@H](Cc1c[nH]cn1)NC(=O)[C@H](CC(C)C)NC(=O)[C@H](Cc1ccccc1)NC(=O)[C@H](CCC(=O)O)NC(=O)[C@H](C)NC(=O)[C@H](CC(C)C)NC(=O)[C@H](CCCNC(=N)N)NC(=O)[C@H](CCC(N)=O)NC(=O)[C@@H](NC(=O)[C@H](C)NC(=O)[C@@H]1CSSC[C@H](NC(=O)[C@H](Cc2c[nH]c3ccccc23)NC(=O)[C@H](CCCNC(=N)N)NC(=O)CC[C@H](NC(=O)CCCCCCCCCCCCCCCCCCC(=O)O)C(=O)O)C(=O)N[C@@H](CC(N)=O)C(=O)N[C@@H]([C@@H](C)O)C(=O)N[C@@H](C)C(=O)N[C@@H]([C@@H](C)O)C(=O)N1)[C@@H](C)O [Compound 174, [19CD]-isoGlu-RWC()NTATC()ATQRLAEFLHRSSNNF-Gly(Me)-A-Ile(Me)-LSSTNVGSNTP-NH2] ({C20 diacid-γGlu}-RWCNTATCATQRLAEFLHRSSNNF[Sar]A[NMeI]LSSTNVGSNTP-NH2; disulfide 3-8) | 92 | 31 | 39 |
| CC[C@H](C)[C@@H](C(=O)N[C@@H](CC(C)C)C(=O)N[C@@H](CO)C(=O)N[C@@H](CO)C(=O)N[C@H](C(=O)N[C@@H](CC(N)=O)C(=O)N[C@H](C(=O)NCC(=O)N[C@@H](CO)C(=O)N[C@@H](CC(N)=O)C(=O)N[C@H](C(=O)N1C[C@H](N)C[C@H]1C(N)=O)[C@@H](C)O)C(C)C)[C@@H](C)O)N(C)C(=O)[C@H](C)NC(=O)CN(C)C(=O)[C@H](Cc1ccccc1)NC(=O)[C@H](CC(N)=O)NC(=O)[C@H](CC(N)=O)NC(=O)[C@H](CO)NC(=O)[C@H](CO)NC(=O)[C@H](CCCNC(=N)N)NC(=O)[C@H](Cc1c[nH]cn1)NC(=O)[C@H](CC(C)C)NC(=O)[C@H](Cc1ccccc1)NC(=O)[C@H](CCC(=O)O)NC(=O)[C@H](C)NC(=O)[C@H](CC(C)C)NC(=O)[C@H](CCCNC(=N)N)NC(=O)[C@H](CCC(N)=O)NC(=O)[C@@H](NC(=O)[C@H](C)NC(=O)[C@@H]1CSSC[C@H](NC(=O)[C@H](CCCNC(=N)N)NC(=O)CC[C@H](NC(=O)CCCCCCCCCCCCCCCCCCC(=O)O)C(=O)O)C(=O)N[C@@H](CC(N)=O)C(=O)N[C@@H]([C@@H](C)O)C(=O)N[C@@H](C)C(=O)N[C@@H]([C@@H](C)O)C(=O)N1)[C@@H](C)O [Compound 110, [19CD]-isoGlu-RC()NTATC()ATQRLAEFLHRSSNNF-Gly(Me)-A-Ile(Me)-LSSTNVGSNT-Apr-NH2] ({C20 diacid-γGlu}-RCNTATCATQRLAEFLHRSSNNF[Sar]A[NMeI]LSSTNVGSNT[Pro(4R-NH2)]-NH2; disulfide 2-7) | 74 | 66 | 59 |
